# Assay results: patent US9382286B2, “Treatment of EBV and KHSV infection and associated abnormal cellular proliferation” (EMORY UNIVERSITY, priority 2001, dated 2016)
# Tested on: HIV-1LAI
# Experiment: Anti-HIV-1 activity in human PBM cells
# Format: cell-based
# Settings: Human immunodeficiency virus 1, PBMC; read-out: EC50 against human immunodeficiency virus type 1
# Description: Anti-HIV-1 activity of the compounds was determined in human peripheral blood mononuclear (PBM) cells as described previously (Schinazi R. F., McMillan A., Cannon D., Mathis R., Lloyd R. M. Jr., Peck A., Sommadossi J.-P., St. Clair M., Wilson J., Furman P. A., Painter G., Choi W.-B., Liotta D. C. Antimicrob. Agents Chemother. 1992, 36, 2423; Schinazi, R. F., Sommadossi J.-P., Saalmann V., Cannon D., Xie M.-Y., Hart G., Smith G., Hahn E. Antimicrob. Agents Chemother. 1990, 34, 1061). Stock solutions (20-40 mM) of the compounds were prepared in sterile DMSO and then diluted to the desired concentration in growth medium. Cells were infected with the prototype HIV-1LAI at a multiplicity of infection of 0.01. Virus obtained from the cell supernatant was quantified on day 6 after infection by a reverse transcriptase assay using (rA)n.(dT)12-18 as template-primer. The DMSO present in the diluted solution (<0.1%) had no effect on the virus yield. AZT was included as positive control. The toxicity of some compounds was assessed in Vero, human PBM, and CEM cells, as described previously (Schinazi R. F., Sommadossi J.-P., Saalmann V., Cannon D. L., Xie M.-Y., Hart G. C., Smith G. A., Hahn E. F. Antimicrob Agents Chemother. 1990, 34, 1061-1067). Cycloheximide was included as positive cytotoxic control, and untreated cells exposed to solvent were included as negative controls. […]
row,SMILES,EC50 [nM]
1,"C#Cc1cn([C@H]2CC(O)[C@@H](CO)O2)c(=O)[nH]c1=O (stereo partly drawn) [5-ethynyl-dU, β-D-2′-deoxy-5-ethynyluridine]",610

# Molecular target: T1, EBV-TK (Epstein-Barr virus, UniProt P03177)
# T1 construct: expressed in transfected cells; host or cells: 143B TK- human osteosarcoma cells and 293 human embryonic kidney cells, stably transfected with pCMV EBV-TK
# Experiment: Selectivity for EBV-TK: thymidine phosphorylation competition and cytotoxicity assays on EBV-TK-expressing cells
# Format: cell-based
# Settings: EBV-TK versus human cellular thymidine kinase
# Description: J. Virol. 74, 684-692). EBV-TK was incubated in an optimized buffer with 15 μM 3H-dT as substrate in a final volume of 100 μL. The enzyme source was either lysate from 143B EBV-TK-expressing cells or purified GST EBV-TK from E. coli. The amount of enzyme was adjusted so that the reaction proceeded linearly for over 60 min. A 10-fold excess (150 μM) of the nucleoside analog being tested was included in the experiment. The reaction was halted at 30 min. by spotting 50 μL of the reaction onto positively charged DE-81 discs (Whatman). After washing four times with 5 mM ammonium formate and once with 95% ethanol, the discs were dried and counted in a scintillation counter. The CPM of the positive control reaction containing no nucleoside analog was taken as 100% activity.
# This assay measures the ability of a candidate nucleoside to specifically eliminate EBV-infected cells in the continuous presence of drug. 143B TK-cells lack TK-1. 293 cells contain human TK-1. Therefore, these assays comparatively assess the effects of human TK expression on toxicity. Stock solutions (20-40 mM) of the compounds were prepared in sterile DMSO and then diluted to the desired concentration in growth medium. The cells (143B TK-, 293 EBV-TK or 293 Neo control cells) were cultured in the presence of drug for 5 days, and the media was replaced with fresh media containing drug on day three. Cells were then washed one time with PBS, fixed with 4% formaldehyde/1% methanol and stained with 1% crystal violet in 20% ethanol for visualization of the cell monolayer. […] Cultures with this designation often have media that is still “pink,” indicating a slowdown of cellular metabolism. Identical samples are assessed in triplicate.
# Stock solutions (20-40 mM) of the compounds were prepared in sterile DMSO and then diluted to the desired concentration in growth medium. Exponentially growing cells were incubated with the nucleoside in question for 24 h, plated in 24-well plates at 50 viable cells per well and incubated for 7-9 days in the absence of drug. Cells were fixed and stained as above and colonies were counted. A nucleoside can cause a decrease in the number of colonies, which is an indirect indication of the number of cells able to survive and to replicate after the initial exposure to drug.
# Two cell systems are employed to determine the toxicity of each nucleoside. The information obtained depends upon the system used. In 143B TK-cells, cytotoxic drugs that are dependent upon phosphorylation by a TK are easily identified. 143B TK-cells expressing either EBV-TK or hTK1 permit assessment of whether either enzyme independently may cause a drug to become cytotoxic. Thus, drugs that can be activated by hTK1, which would cause non-specific cytotoxicity, are readily identified. One drawback is that these cells are grown in HAT media that “forces” nucleosides through the TK salvage pathway (EBV-TK or hTK1). A false positive may arise if a nucleoside out-competes dT for phosphorylation such that sufficient amounts of dT are not available for cellular replication. This toxicity may not be present or may be reduced in a cell that has the synthetic as well as salvage pathways available for dTTP production. For this reason, the 293 system was developed. These cells have endogenous hTK1 and EBV-TK is maintained by selection in G418. Thus, the normal hTK1 salvage pathway is operational, and nucleosides can be expected to flux through the cells normally. Drugs are incubated with 293 cells transformed with a neomycin (Neo) expressing plasmid (Neo control) and with cells transfected with the same plasmid also expressing EBV-TK. A nucleoside selectively activated by EBV-TK should cause toxicity on 293 EBV-TK and not on 293 Neo control cells. In both the 143B and 293 cell systems, toxicity is evaluated by cell survival. The cells are cultured in the presence of drug for 5 days, and the media replaced with fresh media containing drug on day 3. […]
# T1 sequence (P03177 whole entry): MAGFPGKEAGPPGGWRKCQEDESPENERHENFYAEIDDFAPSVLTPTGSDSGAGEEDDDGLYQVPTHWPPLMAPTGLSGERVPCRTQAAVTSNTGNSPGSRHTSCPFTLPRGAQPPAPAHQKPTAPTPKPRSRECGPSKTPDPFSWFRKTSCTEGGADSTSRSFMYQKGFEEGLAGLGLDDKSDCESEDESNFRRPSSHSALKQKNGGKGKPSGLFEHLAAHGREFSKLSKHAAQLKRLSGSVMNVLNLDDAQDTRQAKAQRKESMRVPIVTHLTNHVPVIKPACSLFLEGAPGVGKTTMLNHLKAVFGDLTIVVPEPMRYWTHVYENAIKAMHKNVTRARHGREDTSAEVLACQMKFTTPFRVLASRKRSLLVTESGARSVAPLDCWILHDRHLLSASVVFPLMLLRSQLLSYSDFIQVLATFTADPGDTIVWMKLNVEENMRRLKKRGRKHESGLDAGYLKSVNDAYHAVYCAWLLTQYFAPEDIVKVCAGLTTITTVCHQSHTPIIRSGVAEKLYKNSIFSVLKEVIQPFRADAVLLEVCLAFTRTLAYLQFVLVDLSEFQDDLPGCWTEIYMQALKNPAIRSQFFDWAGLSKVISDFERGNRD
row,SMILES,selectivity for EBV-TK (specifically phosphorylated and converted into a cytotoxic agent by EBV-TK)
1,"O=c1[nH]c(=O)n([C@@H]2CO[C@H](CO)O2)cc1/C=C/CO [(2S,4S)-5-(3-hydroxypropenyl)-1-[2-(hydroxymethyl)-1,3-dioxolan-4-yl]uracil]",selectivity for EBV-TK
2,O=c1[nH]c(=O)n([C@@H]2CC(O)[C@H](CO)O2)cc1I (stereo partly drawn) [β-L-2′-deoxy-5-iodouridine],selectivity for EBV-TK
3,"O=c1[nH]c(=O)n([C@@H]2CO[C@H](CO)O2)cc1-c1ccc(Br)o1 [(2S,4S)-5-(5-bromo-2-furanyl)-1-[2-(hydroxymethyl)-1,3-dioxolan-4-yl]uracil]",selectivity for EBV-TK
4,"O=c1[nH]c(=O)n([C@@H]2CO[C@H](CO)O2)cc1-c1ccco1 [(2S,4S)-5-(2-furanyl)-1-[2-(hydroxymethyl)-1,3-dioxolan-4-yl]uracil]",selectivity for EBV-TK
5,O=C(O)/C=C/c1cn([C@H]2CC(O)[C@@H](CO)O2)c(=O)[nH]c1=O (stereo partly drawn) [β-D-5-E-(2-carboxyvinyl)-2′-deoxyuridine],selectivity for EBV-TK
6,O=c1[nH]c(=O)n([C@H]2CC(O)[C@@H](CO)O2)cc1CO (stereo partly drawn) [β-D-2′-deoxy-5-(hydroxymethyl)uridine],selectivity for EBV-TK
7,C=Cc1cn([C@H]2O[C@@H](CO)C(O)C2O)c(=O)[nH]c1=O (stereo partly drawn) [β-L-5-vinyluridine],selectivity for EBV-TK
8,CCCCc1cn([C@H]2CC(O)[C@@H](CO)O2)c(=O)[nH]c1=O (stereo partly drawn) [β-D-5-butyl-2′-deoxyuridine],selectivity for EBV-TK
9,"O=c1[nH]c(=O)n([C@@H]2CO[C@H](CO)O2)cc1-c1ccc(Br)s1 [(2S,4S)-5-(5-bromthien-2-yl)-1-[2-(hydroxymethyl)-1,3-dioxolan-4-yl]uracil]",selectivity for EBV-TK
10,"O=c1[nH]c(=O)n([C@@H]2CO[C@H](CO)O2)cc1-c1cccs1 [(2S,4S)-5-(2-thienyl)-1-[2-(hydroxymethyl)-1,3-dioxolan-4-yl]uracil]",selectivity for EBV-TK
11,C=Cc1cn([C@@H]2CC(O)[C@H](CO)O2)c(=O)[nH]c1=O (stereo partly drawn) [β-L-2′-deoxy-5-vinyluridine],selectivity for EBV-TK
12,"C=Cc1cn([C@H]2CC(O)[C@@H](CO)O2)c(=O)[nH]c1=O (stereo partly drawn) [5-vinyl-dU, β-D-2′-deoxy-5-vinyluridine]",selectivity for EBV-TK
